Assay results reported in US20140018432A1, “ELECTROCHEMICAL GENERATION OF CHLORINATED UREA DERIVATIVES” (Hercules Incorporated, priority 2012, published 2014).

Legend:
microorganisms = assay: Microbiological studies (biocidal activity); settings: no details given
[1] = Stability of aqueous solutions of the chlorinated ureas; type: physicochemical

## CNC(=O)N(C)Cl [N-chloro-N,N′-dimethylurea]
microorganisms
  biocidal activity: potent biocides
[1]
  stability compared with N-chlorourea: significantly more stable than N-chlorourea
[1]; basic solutions (pH 12 and higher, flow cell without membrane)
  stability of solution: not stable
[1]; neutral or acidic environment
  stability of solution: significantly more stable

## NC(=O)NCl [N-chlorourea]
microorganisms
  biocidal activity: potent biocides
